Reference: patent US5534554A, “Sucrose ester-C20 to C28 alcohol formulations” (priority 1994, dated 1996)
pEC50: −log10 of the molar value. “Also recorded” adds a separate entry of the source.

Legend:
Cytomegalovirus = assay: Antiviral activity against human cytomegalovirus; assay type: cell-based, human virus; conditions: Table 6, human viruses
HSV [1] = assay: Viral migration to the nucleus (HSV antigens by ELISA, ICP-4 by immunofluorescence); assay type: cell-based
Text: (§1) The collective implications of the results of the studies are that the compound appears to interfere with one or more of the common pathways of viral entry into the cell and migration to the nucleus of infected target cells.
Thus, the amounts of both HSV core and envelope protein antigens detectable by ELISA, as well as the numbers of infected cells expressing the intranuclear HSV-specific immediate-early protein, ICP-4, by immunofluorescence, are reduced by more than 80%. Finally, the replication of infectious virions as measured in secondary plaque assay cultures is markedly diminished by 99% or more in n-docosanol-treated cells.

HSV-1 = assay: Inhibition of HSV-1-induced cutaneous lesions (vesicles) in hairless guinea pigs; assay type: in vivo; conditions: continued treatment
Text: Burroughs Wellcome Co., Research Triangle Park, N.C.; the current agent of choice for treatment of HSV infections which inhibits activity of viral DNA polymerase) in inhibiting HSV-1-induced cutaneous lesions in hairless guinea pigs. […] To confirm in an experimental animal model the efficacy of n-docosanol cream on HSV-induced lesions, and to compare its activity to that of […], hairless guinea pigs were inoculated with 1×10^6 PFU of HSV-1, and then treated with either n-docosanol-containing or control cream, or […] ointment. The n-docosanol creams were constructed as described. The control cream was constructed in a similar manner except stearic acid was substituted for n-docosanol. Treatment was started either 2 or 48 hours after virus inoculation. The sites were evaluated for vesicle formation, defined as a pus-filled blister, at the indicated time points.

HSV [2] = assay: Secondary plaque assay of infectious virions; assay type: cell-based; conditions: secondary plaque assay cultures
Text: Finally, the replication of infectious virions as measured in secondary plaque assay cultures is markedly diminished by 99% or more in n-docosanol-treated cells.

HSV [3] = assay: Inhibition of HSV replication, Tetronic versus Pluronic suspensions; assay type: cell-based
Vero cells [4] = system: Vero cells
[5] = system: Herpes simplex virus type 2; assay: Inhibition of HSV type 2 infectivity in simian and human cell lines; assay type: cell-based, HSV-2
[6] = system: Herpes simplex virus type 1; assay: Inhibition of HSV type 1 infectivity in simian and human cell lines; assay type: cell-based, HSV-1
virus = assay: Direct virucidal activity; conditions: n-docosanol suspension
Text: as §1

wild-type HSV-2 = assay: Plaque inhibition, wild-type HSV-2 in Vero cells; assay type: cell-based; conditions: FIG. 7, Panel A
Varicella Zoster Virus = assay: Antiviral activity against varicella zoster virus; assay type: cell-based; conditions: Table 6, human viruses
murine retroviruses = assay: Replication of murine retroviruses in vitro and in vivo
Text: n-Docosanol has anti-retroviral activity both in vitro and in vivo. […] Notwithstanding the implications for treatment of AIDS, availability of a treatment regimen for diseases caused by retroviruses like feline leukemia virus, bovine leukemia virus, as well HTLV-1 and -2 would have substantial benefits in humanitarian terms.

prostate gland = conditions: oral, U.S. Pat. No. 4,186,211; cited from earlier work
Friend virus = assay: Friend virus-induced leukemia and viremia in mice; assay type: in vivo, BALB/c mice; conditions: intravenous
Vero cells [7] = assay: Cellular uptake and distribution of radiolabeled n-docosanol in Vero cells
LP-BM5 Virus = assay: Antiviral activity against LP-BM5 virus; assay type: cell-based; conditions: Table 6, murine viruses
[8] = system: acyclovir-resistant HSV-2; assay: Plaque inhibition, acyclovir-resistant HSV-2 in Vero cells; assay type: cell-based; conditions: FIG. 7, Panel B
viruses = conditions: U.S. Pat. No. 4,874,794; cited from earlier work
Vero or MDBK cells = assay: Uptake and metabolism in Vero versus MDBK cells; assay type: in vitro ADME, bovine (MDBK)
Protocol: FIG. 11 depicts data showing that n-[^14 C]-docosanol is metabolized more by Vero cells than by MDBK cells. Vero or MDBK cells were plated as described in the specification. n-[^14 C]-Docosanol was added to 6 mM (0.24 mM Tetronic 908) and the cultures were incubated 72 hours at 37° C./CO2. Cells were extracted and analyzed on TLC with hexane:diethyl ether:acetic acid (20:30:1; v:v:v) as the developing solvent. With this solvent system the polar phosphatides remain at the origin. The position of migration of n-docosanol is indicated. Duplicate plates were treated with an identical suspension lacking the radioactive label, and the numbers of cells in these duplicate plates were determined by counting cells excluding trypan blue with a hemocytometer.
When we compared total cellular uptake and relative metabolism, the results were strikingly clear. First, both the total amounts of n-docosanol uptake and the relative amounts of metabolic conversion were 3-4 times higher in Vero than in MDBK cells. […] Nonetheless, of the counts that are metabolized in two cells lines, the relative amounts in the major classes of phosphatides that are formed, phosphatidylcholine and phosphatidylethanolamine, are not different in the two cell lines.

SMILES: CCCCCCCCCCCCCCCCCCCCCCO [n-docosanol]
- susceptibility to antiviral activity: Cytomegalovirus (Cytomegalovirus): susceptible
- viral migration to the cell nucleus (HSV [1]): significantly inhibited; also recorded: substantially blocked
- reduction of HSV core protein antigen (HSV [1]; ELISA): more than 80%
- reduction of HSV envelope protein antigen (HSV [1]; ELISA): more than 80%
- reduction of number of infected cells expressing ICP-4 (HSV [1]; immunofluorescence): more than 80%
- vesicle number at the 72 hour time point (HSV-1): many fewer vesicles
- decrease of replication of infectious virions (HSV [2]): ≥ 99%
- ED50 in Pluronic relative to Tetronic (HSV [3]; suspended in Pluronic F-68): approximately 3 times
- pEC50 (HSV [3]; suspended in Tetronic 908, read-out: ED50 for inhibition of HSV replication): 2.00 to 2.30
- counts migrating in the region of phosphatidylcholine (Vero cells [4]): approximately 62%
- counts migrating in the region of phosphatidylethanolamine (Vero cells [4]): ~38%
- levels of metabolic conversion, Tetronic relative to Pluronic (Vero cells [4]): 3 fold
- metabolic conversion (Vero cells [4]): progressively metabolized to polar compounds
- susceptibility to antiviral activity: Herpes Simplex - 2 ([5]; Table 6): susceptible
- inhibitory activity in vitro ([5]; suspension in Pluronic F-68): excellent inhibitory activity
- susceptibility to antiviral activity: Herpes Simplex - 1 ([6]; Table 6): susceptible
- inhibitory activity in vitro ([6]; suspension in Pluronic F-68): excellent inhibitory activity
- direct virucidal activity (virus): no direct virucidal activity
- inhibition of plaque formation (wild-type HSV-2): inhibit plaque formation by wild type HSV-2 equally
- susceptibility to antiviral activity: Varicella Zoster Virus (Varicella Zoster Virus): susceptible
- inhibition of murine retrovirus replication (murine retroviruses): does inhibit replication of murine retroviruses in vitro and in vivo
- treatment of enlargement of the prostate gland (prostate gland): therapeutically effective
- inhibition of development of leukemic foci (Friend virus; FIG. 12 Panel A): very clear dose-related inhibitory affect
- inhibition of development of viremia (Friend virus; FIG. 12 Panel B): very clear dose-related inhibitory affect
- radioactivity in the soluble cytoplasmic fraction (Vero cells [7]; after 12 hours of exposure): the balance of radioactivity
- actual bioactive dose relative to the dose shown in FIGS. 7 and 9 (Vero cells [7]; cultures, from uptake studies): 1/1000
- reduction of uptake of n-docosanol by energy poisons (Vero cells [7]; sodium azide and 2-deoxyglucose, Vero cells): 90%
- susceptibility to antiviral activity: LP-BM5 Virus (LP-BM5 Virus): susceptible
- inhibition of acyclovir-resistant HSV-2 mutant [8]: very clearly susceptible
- antiviral properties (viruses): favorable
- relative metabolic conversion, Vero relative to MDBK cells (Vero or MDBK cells): 3-4 times
- total uptake, Vero relative to MDBK cells (Vero or MDBK cells): 3-4 times
- amount of phosphatide metabolite, Vero relative to MDBK cells (Vero or MDBK cells; after 72 hours, FIG. 11): ~4 fold
- relative amounts of phosphatidylcholine and phosphatidylethanolamine in the two cell lines (Vero or MDBK cells; of counts metabolized): not different
